According to PubChem BioAssay (NCI):
“And” between values parts separate entries of the source, which are not always exact repeats. Equal entries are not always repeated.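 Step 1: Grow cells in 96-well plates. Step 2: Expose to compound for 48 hours at 5 concentrations. Step 3: Interpolate endpoints linearly; if unreached, use highest concentration. The concentration for 50% growth inhibition is given as GI50. The concentration for full growth arrest is given as TGI.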

Assays:
Test in all cases: NCI-60 cell line screen, 48 h
[1] = system: EKVX NSCLC
[2] = system: UACC-62 melanoma
[3] = system: KM12 colon
[4] = system: K-562 leukemia
[5] = system: A498 renal
[6] = system: IGROV1 ovarian
[7] = system: SK-OV-3 ovarian
[8] = system: ACHN renal
[9] = system: NCI-H522 lung
[10] = system: SF-268 CNS

Row | Compound | GI50 [1] | TGI [1] | GI50 [2] [µM] | TGI [2] | GI50 [3] [µM] | TGI [3] | GI50 [4] [µM] | TGI [4] | GI50 [5] [µM] | TGI [5] | GI50 [6] | TGI [6] | GI50 [7] | TGI [7] | GI50 [8] [µM] | TGI [8] | GI50 [9] [µM] | TGI [9] | GI50 [10] [µM] | TGI [10]
1 | C[C@@H]1Cc2c([nH]c3ccccc23)[C@@H](c2c(F)cc(/C=C/C(=O)O)cc2F)N1CC(C)(C)F | 12.7 µM | 39.2 µM | 3.9 | 17.3 µM | 11 | 28.7 µM | 13.6 | 46.1 µM | 8.77 | 23.7 µM | 16.4 µM | 37.2 µM | 18.6 µM | 36.7 µM | 12.7 | 28 µM | 14 | 33.6 µM | 14.2 | 31.8 µM
2 | O=C1/C(=C/c2ccccc2)CN(C(=O)Oc2ccc(Cl)cc2)C/C1=C\c1ccccc1 |  | 26.7 µM |  | 5.42 µM |  | 3.28 µM |  | 5.79 µM |  | 7.81 µM |  | 10.2 µM |  | 20.5 µM |  | 8.86 µM |  | 5.51 µM |  | 8.77 µM
3 | CN(C)c1ccc2c(c1)oc(=O)c1ccccc12 |  | 52.3 µM |  | 30.4 µM |  |  |  | 26.9 µM |  | 33 µM |  | 36.7 µM |  |  |  | 44.6 µM |  | 20.9 µM |  | 22.7 µM
4 | O=c1c(Cl)c(Cl)cnn1-c1ccccc1 | 5.44 µM and 15.4 µM | 10.5 µM and 33.4 µM |  | 3.34 µM and 5.36 µM |  | 21.3 µM and 23.5 µM | 2.13 | 5.14 µM and 4.67 µM |  | 31.6 µM and 31.2 µM | 1.81 µM and 7.02 µM | 3.37 µM and 21.5 µM | 8.36 µM and 3.44 µM | 21.2 µM and 10.6 µM |  | 11.6 µM and 13.5 µM |  | 2.82 µM and 3.79 µM |  | 15.7 µM and 25.6 µM
5 | OCCNCO |  | > 100 µM |  | > 100 µM |  | > 100 µM |  | > 100 µM |  | > 100 µM |  | > 100 µM |  | > 100 µM |  | > 100 µM |  | > 100 µM |  | > 100 µM
6 | COc1ccc(N=Cc2cc(OC)c(OC)c(OC)c2)cc1 |  | > 100 µM |  | > 100 µM |  | > 100 µM |  | > 100 µM |  | > 100 µM |  | > 100 µM |  | > 100 µM |  | > 100 µM | > 100 | > 100 µM |  | > 100 µM
7 | O=C1CC[C@H]2CNC(=O)C[C@H]2C1 |  | > 100 µM |  | > 100 µM |  | > 100 µM |  | > 100 µM |  | > 100 µM |  | > 100 µM |  | > 100 µM |  |  |  | > 100 µM |  | > 100 µM
8 | N#Cc1cnn2ccn(C3OC(COC(=O)c4ccccc4)C(OC(=O)c4ccccc4)C3OC(=O)c3ccccc3)c12 (stereo not given) |  | > 21.5 µM |  | > 21.5 µM |  | 21.5 µM |  | > 21.5 µM |  | 21.5 µM |  | > 21.5 µM |  | > 21.5 µM |  | > 21.5 µM |  | > 21.5 µM |  | > 21.5 µM
9 | COc1ccc(-n2cc(-c3ccc(OC)c(OC)c3)[nH]c2=S)cc1Cl | 41.5 µM | > 100 µM | > 100 | > 100 µM | > 100 | > 100 µM | > 100 | > 100 µM | > 100 | > 100 µM | > 100 µM | > 100 µM | > 100 µM | > 100 µM | > 100 | > 100 µM | > 100 | > 100 µM | 58.7 | > 100 µM
10 | CC(=O)/C=C/c1cccc(N=S)c1 |  | > 63 µM |  | > 57.2 µM |  | 20.2 µM |  | > 35.9 µM |  | 78.7 µM |  | > 48.4 µM |  | > 81.9 µM |  | > 53.3 µM |  | > 53.7 µM |  | > 69.6 µM
11 | O=C1c2ccccc2-c2c1c1cc3c(cc1c(=O)n2CCCCl)OCO3 | > 100 µM | > 100 µM | 30.5 | > 100 µM | 24.1 | > 100 µM | 99.8 | > 100 µM | 59.8 | > 100 µM |  |  | > 100 µM | > 100 µM | 24.5 | 98.7 µM | 16.8 | > 100 µM | 51.7 | > 100 µM
12 | CN(C)S(=O)(=O)Nc1ccccn1 |  | > 100 µM |  | > 100 µM |  | > 100 µM |  | > 100 µM |  | > 100 µM |  | > 100 µM |  | > 100 µM |  | > 100 µM |  | > 100 µM |  | > 100 µM
13 | N#Cc1c(O)c2c(c(O)c1C#N)C(=O)c1ccccc1C2=O | 3.07 µM | 26.1 µM | 1.05 | 2.85 µM | 2.59 | 12.1 µM | 1.9 | 6.63 µM | 1.39 | 16.4 µM | 2.89 µM | 10.8 µM | 3.99 µM | > 34.9 µM | 2.72 | 9.96 µM | 2 | 5.92 µM | 2.8 | 16 µM
14 | O=C1NC(=O)C2C(=O)NC(=O)C1C2(c1ccccc1)c1ccc(Cl)cc1 (stereo not given) |  | > 100 µM |  | > 100 µM |  | > 100 µM |  | > 100 µM |  | > 100 µM |  | > 100 µM |  | > 100 µM |  | > 100 µM |  | > 100 µM |  | > 100 µM
15 | CC(=O)c1ccc(N(/C=C/C(=O)C(F)(F)F)CC(=O)c2ccc(Cl)c(Cl)c2)cc1 | 19.9 µM | 38.5 µM | 7.01 | 19.8 µM | 12.8 | 27.1 µM |  |  | 14.5 | 28.2 µM | 13.9 µM | 28.4 µM | 18.1 µM | 38.9 µM | 14.4 | 27.7 µM | 13.2 | 27.7 µM | 14.2 | 31.5 µM
16 | CC1=C(CCCOC(=O)NCCCl)C2=C(C)C3(CC3)[C@@](C)(O)C(=O)C2=C1 | 3.45 µM | > 100 µM | 2.02 | 4.96 µM | 10.5 | 88.2 µM | 23 | > 100 µM | 1.88 | 3.95 µM | 1.77 µM | 17.6 µM | 2.35 µM | 6.46 µM |  |  | 3.99 | 21.4 µM | 3.07 | 51.7 µM
17 | O=C1CCC(NC(=O)c2ccccc2)C(=O)N1 (stereo not given) |  | > 100 µM |  | > 100 µM |  | > 100 µM |  |  |  | > 100 µM |  | > 100 µM |  | > 100 µM |  | > 100 µM |  | > 100 µM |  | > 100 µM
